Consider three compounds from paper PMC9954273, “Construction and Manipulation of Serial Gradient Dilution Array on a Microfluidic Slipchip for Screening and Characterizing Inhibitors against Human Pancreatic Lipase” (Biosensors, 2023).

Molecules are shown by their SMILES. Where two headings read alike, the source gives them in different places.

Experiment [1] deals with T1, human pancreatic lipase (hPL) (Homo sapiens, UniProt P16233).
T1 sequence (P16233 17-465): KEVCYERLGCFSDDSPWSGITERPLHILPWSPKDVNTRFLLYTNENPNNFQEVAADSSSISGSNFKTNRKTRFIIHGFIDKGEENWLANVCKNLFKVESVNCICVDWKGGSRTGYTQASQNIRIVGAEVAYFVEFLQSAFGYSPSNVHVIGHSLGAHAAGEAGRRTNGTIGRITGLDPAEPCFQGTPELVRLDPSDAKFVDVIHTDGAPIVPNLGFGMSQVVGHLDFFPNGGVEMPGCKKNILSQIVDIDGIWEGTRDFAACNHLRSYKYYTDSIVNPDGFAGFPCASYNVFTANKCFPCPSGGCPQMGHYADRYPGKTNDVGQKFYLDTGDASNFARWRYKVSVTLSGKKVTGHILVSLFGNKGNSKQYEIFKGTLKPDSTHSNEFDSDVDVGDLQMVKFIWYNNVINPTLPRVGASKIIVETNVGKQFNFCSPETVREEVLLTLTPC
As to the kind of experiment: Fluorescence-based hPL inhibition assay on microfluidic SlipChip (DDAO-ol hydrolysis). It counts as biochemical. The note with it: for inhibition of hPL-catalyzed DDAO-ol hydrolysis (in words): dose-inhibition curves, Figure 5; for IC50: substrate DDAO-ol 20 μM, hPL 0.25 μg/mL, seven 1:1 gradient concentrations, triplicate, read-out: IC50 against hPL (SlipChip). How it is done:
Fluorescence-based assays were used to determine the residual activities of hPL in the presence of different concentrations of inhibitor, and to calculate the IC50 of the inhibitors. […] Then, the inhibitor at the initial concentration was injected into the P1 fluidic path, followed by injecting DMSO into the P2, P3 and P4 fluidic paths. After sliding the SlipChip as described in Section 2.3 with optimized conditions, seven microchambers containing inhibitors with gradient concentrations were formed. At the same time, the enzyme-substrate system was prepared by mixing 111 μL Tris-HCl (pH 7.4, 25 mM), 80 μL bile salts (0.1 mg/mL, final concentration), 1 μL hPL (dissolved in Tris-HCl buffer, 0.25 μg/mL, final concentration) and 8 μL substrate (DDAO-ol, dissolved in DMSO, 20 μM, final concentration). After pipetting out the residual DMSO in the new path (P5), the prepared enzyme-substrate mixture was immediately injected into the P5 fluidic path. Finally, the top layer was slipped down and to the right, transporting the serial gradient array of inhibitor to the solution of the enzyme-substrate system. […] After 3 min, […] The SlipChip device was then placed under the Olympus IX83 inverted microscope with the same fluorescent condition to obtain the photos of each microchamber. The gray value of the fluorescent photo was analyzed by ImageJ software. The residual activity of hPL was calculated using the following formula: the residual activity (%) = the fluorescence intensity of the test sample/the fluorescence intensity in negative control (DMSO only) × 100%.
All inhibition assays were performed in triplicate (three technical replicates) for each concentration of the inhibitors. IC50 and values were calculated using GraphPad Prism 7.0 (GraphPad Software, Inc., La Jolla, CA, USA).

Experiment [2] deals with T1, human pancreatic lipase (hPL). The note with it: past studies of the authors, cited from earlier work.

By IC50 is commonly meant the concentration that inhibits the measured activity by half. Regarding `O=C(OC[C@H]1O[C@@H](OC(=O)c2cc(O)c(O)c(O)c2)[C@H](OC(=O)c2cc(O)c(O)c(O)c2)[C@@H](OC(=O)c2cc(O)c(O)c(O)c2)[C@@H]1OC(=O)c1cc(O)c(O)c(O)c1)c1cc(O)c(O)c(O)c1` [PGG, 1,2,3,4,6-penta-O-galloyl-β-D-glucopyranose], the “inhibition of hPL-catalyzed DDAO-ol hydrolysis (in words)” value (shortened to “inhibition”) in experiment [1] is reported as “strongly inhibited hPL-catalyzed DDAO-ol hydrolysis in a dose-dependent manner”. Moreover, the IC50 is 8.22 nM in experiment [1] and 7.59 nM in experiment [2] (read-out: IC50, anti-hPL activity).

Consider `COc1ccc(-c2cc(=O)c3c(O)cc(O)c(-c4cc(-c5cc(=O)c6c(O)cc(OC)cc6o5)ccc4OC)c3o2)cc1` [sciadopitysin], for which, in experiment [1], the “inhibition” value is reported as “strongly inhibited hPL-catalyzed DDAO-ol hydrolysis in a dose-dependent manner” and the IC50 was 800 nM. Also, the IC50 in experiment [2] (read-out: IC50, inhibitory effect on hPL) is 750 nM.

`CCCCCCCCCCC[C@@H](C[C@@H]1OC(=O)[C@H]1CCCCCC)OC(=O)[C@H](CC(C)C)NC=O` [Orlistat]: the “inhibition” value in experiment [1] was “strongly inhibited hPL-catalyzed DDAO-ol hydrolysis in a dose-dependent manner”.
